One assay relates to CD133, ALDH1A and ABCB5. In words: Immunofluorescence of cancer cells from primary tumor micro-environment, chemo-resistant stem-like signature panel. It counts as in vivo, mouse. Conditions: cancer cells from primary TME; % change relative to vehicle control. The method, then: FIG. 2 is a graphical and photographic representation showing the efficacy of dual phenelzine sulfate (phenelzine) and anti-PD1 antibody (PD1) therapy on circulating tumor cells (CTCs) and cancer stem cells (CSC) as well as tumor burden. A. Statistics of tumor volumes on day 15 post-treatment. A Mann-Whitney non-parametric t-test was used to compare control vs other groups (*p<0.02, **p<0.008). Group A=Control, Group C: PD1 (10 mg/kg), Group D: Phenelzine (40 mg/kg), Group F: PD1+Phenelzine. Illustration of the treatment protocol is also shown. […] Representative images for each dataset are shown. […] C. […] (a) Representative images for each dataset are shown. (b) Graph represents the TCFI values for CD133 TNFI for ALDH1A and TFI for ABCB5 measured using ImageJ to select the nucleus/cytoplasm minus background (n>20 individual cells, Group A=Control, Group C: PD1 (10 mg/kg), Group D: Phenelzine (40 mg/kg), Group F: PD1+Phenelzine).
FIG. 11 is a photographic and graphical representation showing triple therapy efficacy on CTC/CSC and tumor burden. A. Statistics of tumor volumes on day 15 post-treatment. […] (b) Graph represents the TCFI values for CD133 TNFI for ALDH1A and TFI for ABCB5 measured using ImageJ to select the nucleus/cytoplasm minus background (n>20 individual cells, Group A=Control, Group B: Abraxane (30 mg/kg), Group C: anti-PD1 (10 mg/kg), Group D: Phenelzine (40 mg/kg), Group E: Abraxane+PD1, Group F: PD1+Phenelzine, Group G: Abraxane+Phenelzine, Group H: Triple Therapy).
Next, the cancer cells were assessed for expression of a chemo-resistant, stem-like biomarker signature biomarker panel (CD133, ALDH1A and ABCB5).
A total of 2×10^5 cells were injected per mouse into mammary gland in 50 μL of phosphate buffered saline (PBS). […] Tumors were measured using calipers and the tumor volumes (mm3) were calculated using the formula (length×width2)/2. ? arvested cells from primary tumors where then cytospun ? -treated with poly-1-lysine and fixed then stored in PBS for IFA Microscopy Analysis. […]

In another assay the test system is LSD1p, CSV and ALDH1A. In words: Immunofluorescence of FFPE tissue, metastatic lesions in lung or liver of 4T1 mice. Type of assay: in vivo, mouse. The protocol:
FIG. 3 is a photographic and graphical representation showing that dual epigenetic-immunotherapy inhibits metastatic progression in 4T1 Mouse model. A. 4T1 Treatment FFPE from each treatment group (Group A=Control, Group C: PD1 (10 mg/kg), Group D: Phenelzine (40 mg/kg), Group F: PD1+Phenelzine) and for each target organ (Lung and Liver) was processed for 3D high resolution microscopy using the BondRX. FFPE tissues were fixed and Immunofluorescence microscopy was performed probing with rabbit LSD1(S111p); mouse anti CSV and goat anti […] and visualized with a donkey anti-rabbit AF 488, anti-mouse 568 and anti-goat 633. Cover slips were mounted on glass microscope slides with ProLong Diamond Antifade reagent (Life Technologies). Protein targets were localized by confocal laser scanning microscopy. Single 0.5 μm sections were obtained using a Leica DMI8 microscope using 100× oil immersion lens running LAX software. The final image was obtained by averaging four sequential images of the same section. Digital images were analyzed using ImageJ software (ImageJ, NIH, Bethesda, Md., USA) to determine the either the Total Nuclear Fluorescent Intensity (TNFI), the Total Cytoplasmic Fluorescent Intensity (TCFI) or total Fluorescent Intensity (TFI). N=40 cells were counted. B. Graphs for both organs are presented here. Graphs represent the TNFI values for LSD1, ALDH1A and TCFI for CSV measured using ImageJ to select the nucleus minus background. Representative images for the Lung dataset are shown.
The expression of a mesenchymal, stem-like biomarker panel was examined in metastatic sites in a 4T1 mouse model treated with vehicle control (Group A), anti-PD1 antibody (10 mg/kg) (Group C), phenelzine sulfate (40 mg/kg) (Group D) or a combination of both (Group F). The present inventors examined the presence of metastatic lesions in the lung or liver and measured the immunofluorescence (IF) of formalin-fixed paraffin-embedded (FFPE) tissue examining the IF intensity of LSD1p, CSV and ALDH1A.
4T1 Treatment FFPE from each treatment group primary tumor biopsies were processed in the BondRX for IFA staining using the instrument protocol: ER2 for 20 mins at 100° C. with Epitope Retrieval Solution 2 which is a pH-9 EDTA based retrieval solution followed by probing with rabbit anti LSD1 (S111p); mouse anti CSV and goat anti ALDH1A and visualized with a donkey anti-rabbit AF 488, anti-mouse 568 and anti-goat 633 or anti rat 633. Cover slips were mounted on glass microscope slides with ProLong Diamond Antifade reagent (Life Technologies). Protein targets were localized by confocal laser scanning microscopy. Single 0.5 μm sections were obtained using a Leica DMI8 microscope using 100× oil immersion lens running LAX software. The final image was obtained by averaging four sequential images of the same section. Digital images were analysed using ImageJ software (ImageJ, NIH, Bethesda, Md., USA) to determine the either the Total Nuclear Fluorescent Intensity (TNFI), the Total Cytoplasmic Fluorescent Intensity (TCFI) or total Fluorescent Intensity (TFI).

Structures can show the parent of a compound that is named as a salt.

Turning to `NNCCc1ccccc1` (racemic) [phenelzine sulfate, (±)-2-phenylethylhydrazine], in the assay with CD133, ALDH1A and ABCB5, the “expression of ABCB5” value is “strongly inhibited”, the “expression of ALDH1A” value was “did not significantly affect” and the “expression of CD133” value is on record as “did not significantly affect”. Besides, in the assay on LSD1p, CSV and ALDH1A (liver lesions), the ALDH1A expression result was “strongly inhibited”, the CSV expression result is recorded as “strongly inhibited” and the “LSD1p IF intensity” value is listed as “strongly inhibited”. In the assay with LSD1p, CSV and ALDH1A (lung lesions), the ALDH1A expression entry is “strongly inhibited”, the CSV expression result is on record as “strongly inhibited” and the “LSD1p IF intensity” value is on record as “strongly inhibited”.

The values above are taken from patent US20210186905A1, “ENHANCING T-CELL FUNCTION AND TREATING A T-CELL DYSFUNCTIONAL DISORDER WITH A COMBINATION OF AN LSD INHIBITOR AND A PD-1 BINDING ANTAGONIST” (EpiAxis Therapeutic Pty Ltd, priority 2017, published 2021).
